{"source": "patent US20240024279A1", "about": "“METHODS FOR REDUCING THE WEIGHT LOSS OR INCREASING THE WEIGHT OF A FELINE IN NEED THEREOF” (INCREVET, INC., priority 2019, published 2024)", "key": {"[1]": {"tested_on": "client-owned cats diagnosed with diabetes mellitus", "assay": "Field effectiveness study in client-owned cats with diabetes mellitus", "type": "in vivo, cat", "conditions": "diabetic cats, oral once daily, day 0 to day 56, low-carbohydrate diet", "procedure": "In a field effectiveness study, client-owned cats diagnosed with diabetes mellitus based on: i) two separate fasting (>6 h) blood glucose measurements >250 mg dL^−1; ii) glucosuria; iii) fructosamine >25% above the upper limit of normal for the testing laboratory, and iv) one or more of the following: polyuria/polydipsia, polyphagia and/or weight loss (documented in the cat's medical records) can be enrolled. Cats with suspected diabetes mellitus can be evaluated during visit 1 (within 7 days prior to day 0). Eligible cats can be enrolled during visit 2 (day 0) and management can be initiated using velagliflozin administered orally once daily. Cats can be prescribed a low-carbohydrate diet. Cats would return to the clinic for evaluation of glycemic control during visits 3 (day 14±3), 4 (day 28±3), and 5 (day 56±3). […] A cat can be brought back to the clinic at any time for unscheduled visits if such visits are determined to be necessary by the owner or investigator. Eight-hour blood glucose curves (blood samples collected every 2 h±15 min for 8 h) can be conducted at every visit starting with visit 2 (day 0) and blood glucose can be measured using an AlphaTRAK 2 glucometer (Abbott Laboratories). […] A central laboratory would be used to evaluate all clinical pathology samples (blood, serum, and urine) that are not analyzed in the clinic for blood glucose curves. […]"}, "[2]": {"tested_on": "healthy purpose-bred cats", "assay": "Urinary glucose excretion in healthy purpose-bred cats after once-daily oral velagliflozin capsules for three days", "type": "in vivo, cat", "conditions": "gelatin capsules once a day for three days, urine", "procedure": "Velagliflozin (2-(4-cyclopropylbenzyl)-4-((2S,3R,4R,5S,6R)-3,4,5-trihydroxy-6-(hydroxymethyl)tetrahydro-2H-pyran-2-yl)benzonitrile, CAS number 946525-65-1; Compound 1) can be prepared by a variety of means, including as described in US2015/0164856A1 and is commercially available, for example as catalog number HY-109018 from MedChemExpress. Velagliflozin formulated in gelatin capsules was administered to healthy purpose-bred cats once a day for three days and the urinary glucose excretion recorded over the three consecutive 24-hour periods following dosing. Velagliflozin was administered at three dose levels: 1 mg, 3 mg and 10 mg per cat per day. The mean daily glucose excretion over three days was 2527 mg, 3601 mg and 5256 mg for mean dosages of 0.318 mg/kg, 0.953 mg/kg and 3.071 mg/kg, respectively."}, "obese cats": {"tested_on": "obese cats", "conditions": "velagliflozin group, 1 mg/kg in gelatin capsules, cited from earlier work"}, "[3]": {"tested_on": "experimental diabetes in cats", "conditions": "cats with experimental diabetes, subcutaneous injection of a suspension in olive oil; cited from earlier work"}, "[4]": {"tested_on": "experimental diabetes in dogs", "conditions": "pancreatectomized animals in full glycosuria; cited from earlier work"}, "[5]": {"conditions": "most species; cited from earlier work"}}, "note": "“Also recorded” adds a separate entry of the source.", "data": [{"smiles": "N#Cc1ccc([C@@H]2O[C@H](CO)[C@@H](O)[C@H](O)[C@H]2O)cc1Cc1ccc(C2CC2)cc1", "note": "[Velagliflozin, 2-(4-cyclopropylbenzyl)-4-((2S,3R,4R,5S,6R)-3,4,5-trihydroxy-6-(hydroxymethyl)tetrahydro-2H-pyran-2-yl)benzonitrile]", "values": [{"measurement": "body weight change", "setting": "[1]", "value": "Weight gain and reduction in weight loss; also recorded: increase the average weight of a cat or reduce the weight loss of a cat"}, {"measurement": "owner-evaluated clinical signs (polydipsia, polyphagia, polyuria)", "setting": "[1]", "value": "improvement in polydipsia, polyphagia and polyuria"}, {"measurement": "mean daily glucose excretion over three days", "setting": "[2]; 1 mg per cat per day, mean dosage 0.318 mg/kg", "value": 2527, "unit": "mg"}, {"measurement": "mean daily glucose excretion over three days", "setting": "[2]; 3 mg per cat per day, mean dosage 0.953 mg/kg", "value": 3601, "unit": "mg"}, {"measurement": "mean daily glucose excretion over three days", "setting": "[2]; 10 mg per cat per day, mean dosage 3.071 mg/kg", "value": 5256, "unit": "mg"}, {"measurement": "body weight at end of treatment", "setting": "obese cats; after the course of treatment", "value": "7.0 ± 1.4", "unit": "kg"}, {"measurement": "food intake at end of treatment", "setting": "obese cats; after the course of treatment", "value": "58 ± 11", "unit": "g"}, {"measurement": "body weight at start of treatment", "setting": "obese cats; before treatment", "value": "7.2 ± 1.5", "unit": "kg"}, {"measurement": "food intake at start of treatment", "setting": "obese cats; before treatment", "value": "57 ± 8", "unit": "g"}]}, {"smiles": "O=C(CCc1ccc(O)cc1)c1c(O)cc(O)cc1O[C@@H]1O[C@H](CO)[C@@H](O)[C@H](O)[C@H]1O", "note": "[phlorizin]", "values": [{"measurement": "effect on hyperglycemia", "setting": "[3]", "value": "dramatic reduction of hyperglycemia"}, {"measurement": "effect on hyperglycemia", "setting": "[4]", "value": "the hyperglycemia disappears"}, {"measurement": "half-life", "setting": "[5]", "value": "short half-life"}]}]}
